Measurements from US11976038B1 (priority 2023, dated 2024).
Read-outs that look alike come from different tables or passages of the source.

Columns and labels:
[1] = corn oil, 200 ppm; for Acid value / Conjugated diene value / Peroxide value: 60° C., after 6 days; for Conjugated diene value: absorbance 232 nm
[2] = corn oil, 200 ppm, oxidation induction time at 20° C. calculated from 100-130° C.
[3] = format: physicochemical
Experimental: An appropriate amount of pure product of Embodiment 1 (about 50 mg) was weighed into a small aluminium box, and the weight of the sample was recorded after equilibration. For a thermogravimetric equipment, the temperature was selected to be 0° C. to 500° C., the heating rate to be 20° C./min, and the nitrogen flow rate to be 100 mL/min, and a thermogravimetric change curve was recorded. The initial reaction temperature was 300° C. according to a baseline extrapolation method. […] Curves A and B in FIG. 2 represent the rate of mass change and the mass change with increasing temperature, respectively.

[4] = background statement; cited from earlier work
[5] = background statement; cited from earlier work; remark: listed apart in the source
[6] = listed as Pure product of Comparative Example 5
[7] = listed as Pure product of Comparative Example 4

Molecule: resveratrol conjugated linoleate [Comparative Example 5]
- Acid value [1]: 0.60 mgKOH/g
- Conjugated diene value [1, 6]: 3.65
- Peroxide value [1, 6]: 27.5 meq/kg
- Shelf life [2, 6]: 71.3 days

Molecule: resveratrol conjugated linoleate [Comparative Example 4]
- Conjugated diene value [1, 7]: 3.60
- Peroxide value [1, 7]: 27 meq/kg
- Shelf life [2, 7]: 71.4 days

Molecule: Oc1ccc(C=Cc2cc(O)cc(O)c2)cc1 [Resveratrol, 3, 4′, 5-trihydroxystilbene]
- initial reaction temperature (thermal stability temperature) [3]: 290 °C
- solubility in oil [4]: 0.98 µg/g
- oral bioavailability [5]: < 1%

Molecule: resveratrol nervonic acid ester [Embodiment 1]
- initial reaction temperature (thermal stability temperature) [3]: 300 °C
- antioxidant activity (DPPH radical scavenging activity) (10 mg in 1 mL 80% methanol, 30 min dark, 517 nm): 90.00%
- antioxidant activity relative to resveratrol (DPPH, ratio to resveratrol): 1.03 times
- acid value versus resveratrol and blank control (FIG. 4) ([1]; 60° C., 0, 1, 3, 6 days): basically lower than those of resveratrol and blank control
- conjugated diene value versus resveratrol and blank control (FIG. 5) ([1]; 60° C., 0, 1, 3, 6 days): basically lower than those of resveratrol and blank control
- peroxide value versus resveratrol and blank control (FIG. 3) ([1]; 60° C., 0, 1, 3, 6 days): basically lower than those of resveratrol and blank control
- Acid value [1]: 0.55 mgKOH/g
- Peroxide value [1]: 26.5 meq/kg
- Conjugated diene value [1]: 3.33
- Shelf life [2]: 78.2 days
